Source: paper PMC9781010, “Polyphenolic Compounds Isolated from Marine Algae Attenuate the Replication of SARS-CoV-2 in the Host Cell through a Multi-Target Approach of 3CL^pro and PL^pro” (Marine Drugs, 2022)
Like-named read-outs stand apart in the source and are kept apart here.

Legend:
3CL^pro (SARS-CoV-2) = 3CL^pro (SARS-CoV-2) (Severe acute respiratory syndrome coronavirus 2, UniProt P0DTD1); assay: biochemical; assay type: biochemical; settings: for Mode of inhibition (Lineweaver–Burk plot): 3CL^pro, Vmax unchanged, Km increased with inhibitor concentration
PL^pro (SARS-CoV-2) = PL^pro (SARS-CoV-2) (Severe acute respiratory syndrome coronavirus 2, UniProt P0DTD1); assay: biochemical; assay type: biochemical; settings: for Mode of inhibition (Lineweaver–Burk plot): PL^pro, Vmax unchanged, Km increased with inhibitor concentration
3CL^pro [1] = target: 3CL^pro (UniProt P0DTD1); assay: Cell-based 3CLpro cleavage inhibition assay (dual luciferase, Vero-E6 cells); parameters: species or system SARS-CoV-2
PL^pro [2] = target: PL^pro (UniProt P0DTD1); assay: Cell-based PLpro cleavage inhibition assay (dual luciferase, Vero-E6 cells); parameters: species or system SARS-CoV-2
SARS-CoV-2 = assay: Cytopathic effect (CPE) reduction assay; assay type: cell-based; settings: for CPE reduction / inhibitory activity against SARS-CoV-2 (in words): no concentration stated
Method: The CPE reduction assay was performed according to the previously reported method. Briefly, the cells were seeded with 5 × 10^4 cells/well in a 96-well plate and incubated at 37 °C for 48 h. A total of 100 µL of the virus was treated in each well using DMEM media that was FBS free and 1% antibiotic to infect a 0.01 multiplicity of infection (MOI) and incubated for an additional 1 h at 37 °C. Subsequently, the infected cells were treated with samples after removing the virus and 72 h of incubation was performed, and the MTT solution was added and allowed to stand for a 4 h incubation period. The formazan crystals were dissolved and the absorbance was measured.

3CL^pro [3] = target: 3CL^pro (UniProt P08659+P0DTD1); assay: Cell-based 3CLpro cleavage inhibition assay (dual luciferase, Vero-E6 cells); parameters: species or system SARS-CoV-2; settings: cell-based
PL^pro [4] = target: PL^pro (UniProt P08659+P0DTD1); assay: Cell-based PLpro cleavage inhibition assay (dual luciferase, Vero-E6 cells); parameters: species or system SARS-CoV-2; settings: cell-based
[5] = cell-free cleavage of 3CL^pro, fluorogenic substrate, read-out: IC50 Value
[6] = cell-free cleavage of PL^pro, fluorogenic substrate, read-out: IC50 Value
[7] = at 6.25 µM, compared to Dieckol

3CL^pro (UniProt P0DTD1), sequence (P08659 whole entry, looked up, other chains not shown): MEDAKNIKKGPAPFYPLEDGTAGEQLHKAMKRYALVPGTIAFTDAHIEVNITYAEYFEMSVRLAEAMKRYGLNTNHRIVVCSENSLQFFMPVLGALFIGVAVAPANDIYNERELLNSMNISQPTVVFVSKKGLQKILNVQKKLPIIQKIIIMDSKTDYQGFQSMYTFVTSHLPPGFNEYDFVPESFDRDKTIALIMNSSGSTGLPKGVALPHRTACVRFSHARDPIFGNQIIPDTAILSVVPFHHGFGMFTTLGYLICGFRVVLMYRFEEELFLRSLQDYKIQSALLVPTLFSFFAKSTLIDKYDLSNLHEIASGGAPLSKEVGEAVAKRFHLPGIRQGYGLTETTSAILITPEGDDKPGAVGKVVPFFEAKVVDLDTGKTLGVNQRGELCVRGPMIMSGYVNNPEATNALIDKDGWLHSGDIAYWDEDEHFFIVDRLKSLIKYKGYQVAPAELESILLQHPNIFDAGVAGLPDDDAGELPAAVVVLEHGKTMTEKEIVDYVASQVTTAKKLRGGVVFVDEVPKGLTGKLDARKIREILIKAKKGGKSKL
PL^pro (UniProt P0DTD1), sequence (P08659 whole entry, looked up, other chains not shown): as above
PL^pro (UniProt P08659+P0DTD1), sequence (P08659 whole entry, looked up, other chains not shown): as above
3CL^pro (UniProt P08659+P0DTD1), sequence (P08659 whole entry, looked up, other chains not shown): as above

SMILES	IC50 (3CL^pro (SARS-CoV-2)) [µM]	Mode of inhibition (Lineweaver–Burk plot) (3CL^pro (SARS-CoV-2))	IC50 (PL^pro (SARS-CoV-2)) [µM]	Mode of inhibition (Lineweaver–Burk plot) (PL^pro (SARS-CoV-2))	Cell-based inhibitory activity against proteolytic activity (in words) (3CL^pro [1])	Cell-based inhibitory activity against proteolytic activity (in words) (PL^pro [2])	CPE reduction / inhibitory activity against SARS-CoV-2 (in words) (SARS-CoV-2)	IC50 (3CL^pro (SARS-CoV-2); [5]) [µM]	IC50 (PL^pro (SARS-CoV-2); [6]) [µM]	CPE reduction activity (SARS-CoV-2; [7])	CPE reduction activity (SARS-CoV-2; at 25 µM)	Concentrations with significant and dose-dependent inhibitory activity (3CL^pro [3]) [µM]	Concentrations with significant and dose-dependent inhibitory activity (PL^pro [4]) [µM]
Oc1cc(O)cc(Oc2c(O)cc(O)c3c2Oc2c(O)cc(Oc4c(O)cc(Oc5c(O)cc(O)c6c5Oc5c(O)cc(O)cc5O6)cc4O)cc2O3)c1 [Dieckol]	5.49 ± 0.092	competitive inhibitors	19.74 ± 0.09	competitive inhibitors	significant and dose-dependent inhibitory activities	significant and dose-dependent inhibitory activities	dose-dependent inhibitory activity						
Oc1cc(O)cc(Oc2c(O)cc3c(c2O)Oc2cc(Oc4c(O)cc(O)cc4O)c(O)c(O)c2O3)c1 [Diphlorethohydroxycarmalol]		competitive inhibitors		competitive inhibitors	significant and dose-dependent inhibitory activities	significant and dose-dependent inhibitory activities	greater activities than IPA	3.12 ± 0.066	6.637 ± 0.056	great CPE reduction activity	greatest CPE reduction activity		
Oc1cc(O)c(Oc2cc(O)cc(O)c2-c2c(O)cc(O)cc2Oc2c(O)cc(O)cc2Oc2c(O)cc(O)c3c2Oc2c(O)cc(O)cc2O3)c(O)c1 [Eckmaxol]		competitive inhibitors		competitive inhibitors	significant and dose-dependent inhibitory activities	significant and dose-dependent inhibitory activities	greater activities than IPA	1.89 ± 0.078	19.83 ± 0.121	great CPE reduction activity			
Oc1cc(O)cc(Oc2cc(O)c(Oc3c(O)cc(O)cc3Oc3cc(O)c(Oc4cc(O)cc(O)c4Oc4cc(O)cc(O)c4Oc4cc(O)cc(O)c4Oc4cc(O)c(Oc5c(O)cc(O)cc5Oc5c(O)cc(Oc6c(O)cc(Oc7c(O)cc(Oc8c(O)cc(Oc9c(O)cc(Oc%10c(O)cc(Oc%11c(O)cc(O)cc%11O)cc%10O)cc9O)cc8O)cc7O)cc6O)cc5O)c(O)c4)c(O)c3)c(O)c2)c1 [Ishophloroglucin A]		competitive inhibitors		competitive inhibitors	greatest inhibitory activity	greatest inhibitory activity		0.481 ± 0.031	1.405 ± 0.007	great CPE reduction activity		6.29 to 75.52	12.59 to 75.52
